Source: PubChem BioAssay (NCI)
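The compound was tested at five concentrations on cells cultured in 96-well plates, with a 48-hour exposure period. At the TGI there is no net growth.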

Columns and labels:
Test in all cases: DTP human tumour cell line panel, 48 h
HCT-15 colon = tested on: HCT-15 colon
LOX IMVI melanoma = tested on: LOX IMVI melanoma
OVCAR-3 ovarian = tested on: OVCAR-3 ovarian
OVCAR-5 ovarian = tested on: OVCAR-5 ovarian
PC-3 prostate = tested on: PC-3 prostate
SF-539 CNS = tested on: SF-539 CNS
SN12C renal = tested on: SN12C renal
SNB-19 CNS = tested on: SNB-19 CNS
SNB-75 CNS = tested on: SNB-75 CNS
NCI-H226 lung = tested on: NCI-H226 lung

Row | SMILES | TGI (HCT-15 colon) [µM] | TGI (LOX IMVI melanoma) [µM] | TGI (OVCAR-3 ovarian) [µM] | TGI (OVCAR-5 ovarian) [µM] | TGI (PC-3 prostate) [µM] | TGI (SF-539 CNS) [µM] | TGI (SN12C renal) [µM] | TGI (SNB-19 CNS) [µM] | TGI (SNB-75 CNS) [µM] | TGI (NCI-H226 lung) [µM]
1 | Cc1cc2nc(C=C(C(F)(F)F)C(F)(F)F)oc2cc1C | 9.62 | 3.96 | 4.35 | 7.03 | 5.08 | 6.43 | 5.1 | > 10 | > 10 | 
2 | [N-]=[N+]=C1C(=O)NN=C1c1ccccc1 | > 100 | > 100 | > 100 | > 100 |  | > 100 | > 100 |  | > 100 | > 100
3 | CC1=CC(C)(C)N=C2SC(c3ccc(N)cc3)=NN12 | > 58.7 | > 100 | > 100 | > 100 |  | > 100 | > 100 | > 100 | > 100 | > 100
4 | Cc1[nH]c(=O)nc2[nH][nH]c(=O)c12 | > 100 | > 100 | > 100 | > 100 |  | > 100 | > 100 |  |  | > 100
5 | CC(=O)C1Cn2c(nc3ccccc32)C[Se]1 (centres undefined) | 20.5 | 12 | 4.5 | 10.4 |  | 4.89 | 13.8 | 16 | 8.02 | 12.5
6 | CCOC(=O)CCC(=O)C1c2cccc(O)c2C(=O)c2c(O)cc(C)cc21 (centres undefined) | 2.25 | 1.97 | 1.18 | 1.67 |  | 0.535 | 3.75 | 3.74 | 1.76 | 1.75
7 | CCOC(=O)C(=O)Nc1ccccc1CC |  | > 100 | > 100 | > 100 |  | > 100 | > 100 | > 100 |  | > 100
8 | COc1c2c(cc3c1OCO3)[C@]13C=C[C@H](OC)C[C@H]1N(C2)CC3O (some centres undefined) | > 100 | > 100 | > 100 | > 100 | > 100 | > 100 | > 100 | > 100 |  | > 100
9 | O=C(CCc1nc(=S)[nH][nH]1)Nc1ccccc1Cl | 41.3 | > 100 | > 100 | > 100 |  | > 100 | > 100 | > 100 | > 100 | > 100
10 | Nc1ccccc1/C(O)=C1/CCOC1=O |  |  | > 100 | > 100 |  |  | > 100 | > 100 | > 100 | > 100
11 | CN(C)CCC1(C2=CCCC2)CC/C(=C\c2ccc(Cl)cc2)C1=O (centres undefined) | 16.6 | 23.1 | 26.8 | 25.7 |  | 25.7 | 24.3 | 24.1 | 20.4 | 28.1
12 | CCCC1=C(CC)C(C(=O)Nc2c(C)cccc2C)=NC(S)N1 (centres undefined) | > 100 |  | > 100 | > 100 |  | > 100 | > 100 | > 100 | > 100 | > 100
